Data reported in US9688702B2, “Alpha-amino boronic acid derivatives, selective immunoproteasome inhibitors” (Ares Trading S.A, priority 2011, dated 2017).

What was measured:
[1] = target: LMP7 (purified human immuno proteasome) (Homo sapiens, UniProt P28062); assay: Determination of LMP7 activity (fluorescence intensity assay, Suc-LLVY-AMC); format: biochemical; conditions: for IC50: 40 μM Suc-LLVY-AMC, 37° C.
Protocol: Measurement of LMP7 inhibition is performed in 384 well format based on fluorescence intensity assay.
(§1) Purified human immuno proteasome (0.5 nM) and serial diluted compounds in DMSO (range of concentrations from 10 μM to 38 pM) or controls (0.5% DMSO) are incubated for 30 minutes at 37° C. in assay buffer containing 50 mM Tris pH 7.4 and 0.03% SDS. The reaction is initiated by the addition of the fluorogenic peptide substrate, Suc-LLVY-AMC (Bachem I-1395), at a concentration of 40 μM. After 90 minutes of incubation at 37° C., fluorescence intensity is measured at λex=350 nm and λem=450 nm with a fluorescence reader (BMG Pherastar reader or equivalent).
as §1, with “proteasome (0.25” for “proteasome (0.5”

[2] = target: Beta5 (purified human constitutive proteasome) (Homo sapiens, UniProt P28074); assay: Determination of Beta5 activity (fluorescence intensity assay, Suc-LLVY-AMC); format: biochemical; conditions: purified human constitutive proteasome 1.0 nM, 40 μM Suc-LLVY-AMC, 37° C.
Protocol: Measurement of Beta5 inhibition is performed in 384 well format based on fluorescence intensity assay.
as §1, with “human constitutive” for “human immuno”, “proteasome (1.0” for “proteasome (0.5”, “(Bachem 1-1395),” for “(Bachem I-1395),”

[3] = purified human immuno proteasome 0.25 nM (examples 79, 80, 83, 84, 85, 87, 88, 89, 90, 91, 93, 94, 96, 97, 101 and 110)
[4] = purified human immuno proteasome 0.5 nM

Row | Structure (SMILES) | Selectivity LMP7 vs Beta5 [1] | IC50 [1, 3] [nM] | IC50 [2] [nM] | IC50 [1, 4] [nM]
1 | O=C(CCn1c(=O)sc2ccccc21)N[C@@H](Cc1c[nH]c2ccccc12)B(O)O [Example 101] | +++ (+++: Selectivity > 30) | < 50 | < 50 | –
2 | O=C(CCC(=O)c1ccccc1)N[C@@H](Cc1ccsc1)B(O)O [Example 1, [(1R)-1-[(4-oxo-4-phenylbutanoyl)amino]-2-(3-thienyl)ethyl]boronic acid] | ++ (++: 10 < Selectivity < 30) | – | 500 to 5000 | 50 to 500
3 | CCc1cccc(C[C@H](NC(=O)CCC(=O)c2ccc(-c3ccccc3)cc2)B(O)O)c1 [Example 17, [(1R)-1-[(4-biphenyl-4-yl-4-oxobutanoyl)amino]-2-(3-ethylphenyl)ethyl]boronic acid] | ++ (++: 10 < Selectivity < 30) | – | 500 to 5000 | 50 to 500
4 | COc1ccc(C(=O)CC(Cc2ccccc2)C(=O)N[C@@H](Cc2cccc(C(F)(F)F)c2)B(O)O)cc1 (mixture of isomers) [Example 27, {(1R)-1-{[2-(RS)-benzyl-4-(4-methoxyphenyl)-4-oxobutanoyl]amino}-2-[3-(trifluoromethyl)phenyl]ethyl}boronic acid] | +++ (+++: Selectivity > 30) | – | 500 to 5000 | < 50
5 | CCc1cccc(C[C@H](NC(=O)CCn2cc(-c3cccnc3)nn2)B(O)O)c1 [Example 76, (R)-(2-(3-ethylphenyl)-1-(3-(4-(pyridin-3-yl)-1H-1,2,3-triazol-1-yl)propanamido)ethyl)boronic acid] | +++ (+++: Selectivity > 30) | – | 500 to 5000 | < 50
6 | O=C(CCn1cc(-c2ccccc2)nn1)N[C@@H](Cc1ccsc1)B(O)O [Example 40, [(1R)-1-{[3-(4-phenyl-1H-1,2,3-triazol-1-yl)propanoyl]amino}-2-(3-thienyl)ethyl]boronic acid] | ++ (++: 10 < Selectivity < 30) | – | 50 to 500 | < 50
7 | CCc1cccc(C[C@H](NC(=O)CCC(=O)c2ccc(OC)cc2)B(O)O)c1 [Example 7, ((1R)-2-(3-ethylphenyl)-1-{[4-(4-methoxyphenyl)-4-oxobutanoyl]amino}ethyl)boronic acid] | +++ (+++: Selectivity > 30) | – | > 5000 | 50 to 500
8 | O=C(CC(C(=O)N[C@@H](Cc1ccsc1)B(O)O)c1cccc(Cl)c1)c1ccccc1 (mixture of isomers) [Example 3, [(1R)-1-{[2-(RS)-(3-chlorophenyl)-4-oxo-4-phenylbutanoyl]amino}-2-(3-thienyl)ethyl]boronic acid] | +++ (+++: Selectivity > 30) | – | > 5000 | 50 to 500
9 | O=C(N[C@@H](Cc1ccsc1)B(O)O)[C@@H](Cc1ccccc1)Cc1cn(-c2ccccc2)nn1 [Example 63, ((R)-1-((S)-2-benzyl-3-(1-phenyl-1H-1,2,3-triazol-4-yl)propanamido)-2-(thiophen-3-yl)ethyl)boronic acid] | ++ (++: 10 < Selectivity < 30) | – | < 50 | < 50
10 | COc1ccc(C(=O)C[C@H](Cc2ccccc2)C(=O)N[C@@H](Cc2ccsc2)B(O)O)cc1 (single isomer, unassigned) [Example 24] | +++ (+++: Selectivity > 30) | – | 50 to 500 | < 50
11 | O=C(CCC(=O)c1ccc(-c2ccccc2)cc1)N[C@@H](Cc1ccsc1)B(O)O [Example 20, [(1R)-1-[(4-biphenyl-4-yl-4-oxobutanoyl)amino]-2-(3-thienyl)ethyl]boronic acid] | + (+: Selectivity < 10) | – | 500 to 5000 | 50 to 500
12 | CCc1cccc(C[C@H](NC(=O)Cn2ccc3ccccc3c2=O)B(O)O)c1 [Example 42, ((1R)-2-(3-ethylphenyl)-1-{[(1-oxoisoquinolin-2(1H)-yl)acetyl]amino}ethyl)boronic acid] | ++ (++: 10 < Selectivity < 30) | – | 500 to 5000 | 50 to 500
13 | COc1ccc(C(=O)CC(Cc2ccccc2)C(=O)N[C@@H](Cc2ccc(OC(F)(F)F)cc2)B(O)O)cc1 (stereo partly drawn) [Example 44, ((1R)-1-(2-benzyl-4-(4-methoxyphenyl)-4-oxobutanamido)-2-(4-(trifluoromethoxy)phenyl)ethyl)boronic acid] | ++ (++: 10 < Selectivity < 30) | – | 50 to 500 | < 50
14 | O=C(CCc1cn(-c2cccnc2)nn1)N[C@@H](Cc1ccc2ccccc2c1)B(O)O [Example 99, (R)-(2-(naphthalen-2-yl)-1-(3-(1-(pyridin-3-yl)-1H-1,2,3-triazol-4-yl)propanamido)ethyl)boronic acid] | +++ (+++: Selectivity > 30) | – | 500 to 5000 | < 50
15 | COc1cc(F)cc(C[C@H](NC(=O)CCn2cnc3ccccc32)B(O)O)c1 [Example 57, (R)-(1-(3-(1H-benzo[d]imidazol-1-yl)propanamido)-2-(3-fluoro-5-methoxyphenyl)ethyl)boronic acid] | ++ (++: 10 < Selectivity < 30) | – | 50 to 500 | < 50
16 | COc1ccccc1C(=O)CCC(=O)N[C@@H](Cc1ccsc1)B(O)O [Example 12, [(1R)-1-{[4-(2-methoxyphenyl)-4-oxobutanoyl]amino}-2-(3-thienyl)ethyl]boronic acid] | – | – | > 5000 | 500 to 5000
17 | COc1ccc(C[C@H](NC(=O)CCn2cnc3ccccc32)B(O)O)cc1C(F)(F)F [Example 53, (R)-(1-(3-(1H-benzo[d]imidazol-1-yl)propanamido)-2-(4-methoxy-3-(trifluoromethyl)phenyl)ethyl)boronic acid] | + (+: Selectivity < 10) | – | 50 to 500 | < 50
18 | COc1ccc(C(=O)C[C@@H](Cc2ccccc2)C(=O)N[C@@H](Cc2ccsc2)B(O)O)cc1 (single isomer, unassigned) [Example 25] | +++ (+++: Selectivity > 30) | – | > 5000 | 50 to 500
19 | COc1cc(F)cc(C[C@H](NC(=O)CCc2noc(-c3ccccc3)n2)B(O)O)c1 [Example 61, (R)-(2-(3-fluoro-5-methoxyphenyl)-1-(3-(5-phenyl-1,2,4-oxadiazol-3-yl)propanamido)ethyl)boronic acid] | +++ (+++: Selectivity > 30) | – | 500 to 5000 | < 50
20 | O=C(CCn1c(=O)sc2ccccc21)N[C@@H](Cc1csc2ccccc12)B(O)O [Example 105, (R)-(2-(benzo[b]thiophen-3-yl)-1-(3-(2-oxobenzo[d]thiazol-3(2H)-yl)propanamido)ethyl)boronic acid] | ++ (++: 10 < Selectivity < 30) | – | < 50 | < 50
21 | O=C(CCc1noc(-c2ccccc2)n1)N[C@@H](Cc1cccc(OC(F)(F)F)c1)B(O)O [Example 60, (R)-(1-(3-(5-phenyl-1,2,4-oxadiazol-3-yl)propanamido)-2-(3-(trifluoromethoxy)phenyl)ethyl)boronic acid] | ++ (++: 10 < Selectivity < 30) | – | 500 to 5000 | 50 to 500
22 | O=C(CCn1cnc2ccccc21)N[C@@H](Cc1coc2ccccc12)B(O)O [Example 88, (R)-(1-(3-(1H-benzo[d]imidazol-1-yl)propanamido)-2-(benzofuran-3-yl)ethyl)boronic acid] | ++ (++: 10 < Selectivity < 30) | < 50 | < 50 | –
23 | CCOc1cccc(CC(NC(=O)CCn2cc(-c3ccccc3)nn2)B(O)O)c1 (centres unmarked) [Example 70, (2-(3-ethoxyphenyl)-1-(3-(4-phenyl-1H-1,2,3-triazol-1-yl)propanamido)ethyl)boronic acid] | ++ (++: 10 < Selectivity < 30) | – | 50 to 500 | < 50
24 | O=C(N[C@@H](Cc1ccsc1)B(O)O)[C@H](Cc1ccccc1)Cc1cn(-c2ccccc2)nn1 [Example 62, ((R)-1-((R)-2-benzyl-3-(1-phenyl-1H-1,2,3-triazol-4-yl)propanamido)-2-(thiophen-3-yl)ethyl)boronic acid] | ++ (++: 10 < Selectivity < 30) | – | 50 to 500 | < 50
25 | COc1ccccc1CCC(=O)N[C@@H](Cc1coc2ccccc12)B(O)O [Example 82] | ++ (++: 10 < Selectivity < 30) | – | < 50 | < 50
